According to ChEMBL document CHEMBL1149057, “Mucus synthesis and sulfhydryl groups in cytoprotection mediated by dehydroleucodine, a sesquiterpene lactone” (1994):
Activity calls are given as the source filed them. The rule behind the calls is not given here.

How the values were obtained:
Rattus norvegicus [1] = experiment: Gastroprotective effect against ethanol-induced gastric damage in fasted Wistar rat assessed as extent of mucosal damage at 40 mg/kg, po pretreated 30 mins before ethanol challenge in presence of indomethacin pretreated 60 mins before ethanol challenge; assay type: functional, Stomach
Rattus norvegicus [2] = experiment: Gastroprotective effect against ethanol-induced gastric damage in fasted Wistar rat assessed as extent of mucosal damage at 40 mg/kg, po pretreated 30 mins before ethanol challenge in presence of N-ethylmaleimide pretreated 60 mins before ethanol challenge
Rattus norvegicus [3] = experiment: Gastroprotective effect in fasted Wistar rat assessed as increase in rate of gastric mucus glycoprotein synthesis at 40 mg/kg, po after 1 hr by N-acetyl-D-[1-3H]glucosamine incorporation method relative to control; assay type: functional, Gastric mucosa
Rattus norvegicus [4] = species: Rattus norvegicus; experiment: Gastroprotective effect in pylorus-ligated Wistar rat assessed as inhibition of acid secretion; assay type: functional, organism-based
Rattus norvegicus [5] = experiment: Gastroprotective effect against ethanol-induced gastric damage in fasted Wistar rat assessed as extent of mucosal damage at 40 mg/kg, po pretreated 30 mins before ethanol challenge measured after 60 mins
Rattus norvegicus [6] = experiment: Gastroprotective effect against ethanol-induced gastric damage in fasted Wistar rat assessed as extent of mucosal damage at 40 mg/kg, po pretreated 30 mins before ethanol challenge in presence of N-ethylmaleimide and indomethacin pretreated 60 mins before ethanol challenge

## C=C1C(=O)O[C@@H]2[C@H]3C(C)=CC(=O)C3=C(C)CC[C@@H]12 [DEHYDROLEUCODIN]
Rattus norvegicus [1]
  UI: 1.2
Rattus norvegicus [2]
  UI: 2.4
Rattus norvegicus [3]
  fold change (FC): 7
Rattus norvegicus [4]
  Activity: inactive
Rattus norvegicus [5]
  UI: 0.3
Rattus norvegicus [6]
  UI: 3.3
